Assay results from BindingDB's records for doi:10.1016/j.ejmech.2021.113704 (Fudan University, 2021).

Assay: Agonist activity at RORgammat in mouse CD4+ T cells assessed as induction of Th17 cells differentiation by measuring increase in IL17 production measured after 4 days by intracellular staining based flow cytometry

EC50: 37 nM
SMILES: CCCN(Cc1ccc(NC(=O)Cc2ccc(S(C)(=O)=O)cc2)cc1Cl)CC1CCCCC1
